Reference: ChEMBL document CHEMBL1136961, “Substituted tetrahydrocarbazoles with potent activity against human papillomaviruses” (Bioorg Med Chem Lett, 2009)

What was measured:
[1] = (§1) Cytotoxicity against human HFF cells; type: cell-based; conditions: HFF cells
[2] = test system: Human papillomavirus type 16; assay: Antiviral activity against HPV-16 infected in human W12-20850 cells after 4 days by non-radioactive hybrid capture technique; type: functional, organism-based, Human papillomavirus 16
[3] = test system: HFF; assay: as §1; type: cell-based; conditions: hff
[4] = Selectivity index, ratio of cytotoxicity against african green monkey Vero cells to antiviral activity against HPV-16; type: toxicity, cell-based; conditions: read-out: Selectivity Index
[5] = Bioavailability in rat at 10 mg/kg administered as suspension; type: ADME, organism-based; conditions: in vivo
[6] = Half life in rat at 10 mg/kg administered as suspension; type: ADME, organism-based; parameters: dose 10 mg/kg; conditions: in vivo
[7] = Clearance in rat at 10 mg/kg administered as suspension; type: ADME, organism-based; parameters: dose 10 mg/kg; conditions: in vivo
[8] = Volume of distribution in rat at 10 mg/kg administered as suspension; type: ADME, organism-based; parameters: dose 10 mg/kg; conditions: in vivo
[9] = Selectivity index, ratio of cytotoxicity against human keratinocytes to antiviral activity against HPV-16; type: toxicity; conditions: read-out: Selectivity Index
[10] = Human papillomavirus 16, W12-20850, 96 h

| Structure (SMILES) | CC50 [1] [µM] | IC50 [2, 10] [µM] | also measured |
| --- | --- | --- | --- |
| Cc1ccc2[nH]c3c(c2c1)CCC[C@@H]3N[C@H](C)c1ccccc1 | 41 | 7.1 |  |
| C[C@H](N[C@H]1CCCc2c1[nH]c1ccc(Br)cc21)c1ccccc1 |  |  | CC50 [3]: 28.5 µM; IC50 ([2]; w12-20850): 2.85 µM |
| Cc1ccc2[nH]c3c(c2c1)CCC[C@H]3N[C@@H](C)c1ccccc1 | 29 | 0.2 |  |
| Cc1ccc2[nH]c3c(c2c1)CCC[C@@H]3N[C@@H](C)c1ccccc1 | 36 | 6.7 |  |
| C[C@@H](N[C@H]1CCCc2c1[nH]c1ccc(Br)cc21)c1ccccc1 | > 30 | > 0.5 |  |
| C[C@@H](N[C@@H]1CCCc2c1[nH]c1ccc(Br)cc21)c1ccccc1 | 9 | 0.03 | selectivity ratio [4]: > 500; bioavailability [5]: 47%; half-life [6]: 4.4 h; clearance [7]: 13.4 mL/min/kg; Vd [8]: 1.9 L/kg; selectivity ratio [9]: > 300 |
| C[C@H](N[C@@H]1CCCc2c1[nH]c1ccc(Br)cc21)c1ccccc1 | 15 | 0.02 |  |
| Cc1ccc2[nH]c3c(c2c1)CCC[C@H]3N[C@H](C)c1ccccc1 | 29 | 0.3 |  |
| CCNC1CCCc2c1[nH]c1ccc(C)cc21 (racemic) | > 20 | > 20 |  |
| Brc1ccc2[nH]c3c(c2c1)CCCC3NCCc1ccccc1 (racemic) | 11.4 | 0.41 |  |
| Cc1ccc2[nH]c3c(c2c1)CCCC3NCCc1ccccc1 (racemic) | 13.5 | 2.7 |  |
| Fc1ccc2[nH]c3c(c2c1)CCCC3NCc1ccccc1 (racemic) | 35.9 | 1.6 |  |
| Cc1ccc2[nH]c3c(c2c1)CCCC3NC(C)c1ccccc1 (racemic) | 40 | 0.54 |  |
| OCCNC1CCCc2c1[nH]c1ccc(Br)cc21 (racemic) | 20.1 | 6.83 |  |
| Brc1cccc2c3c([nH]c12)C(NCc1ccccc1)CCC3 (racemic) | > 40 | 11.4 |  |
| Brc1ccc2c3c([nH]c2c1)C(NCc1ccccc1)CCC3 (racemic) | > 40 | 11.1 |  |
| Brc1ccc2[nH]c3c(c2c1)CCCC3NC1Cc2ccccc2C1 (racemic) | 30.8 | 0.12 |  |
| C[C@H](N[C@H]1CCCc2c1[nH]c1ccc(Br)cc21)c1ccccc1 (racemic) | 22.9 |  | IC50 ([2]; w12-20850): 0.03 µM |
| CC(C)(NC1CCCc2c1[nH]c1ccc(Br)cc21)c1ccccc1 (racemic) | > 40 | 0.6 |  |
| Clc1ccc2[nH]c3c(c2c1)CCCC3NCc1ccccc1 (racemic) | 27.9 | 0.33 |  |
| Cc1ccc2[nH]c3c(c2c1)CCCC3NCCO (racemic) | > 30 | > 30 |  |
| CCN(CC)CCNC1CCCc2c1[nH]c1ccc(C)cc21 (racemic) | > 30 | > 30 |  |
| c1ccc(CNC2CCCc3c2[nH]c2ccccc32)cc1 (racemic) | 40.4 | 6.7 |  |
| COC(=O)c1ccc2[nH]c3c(c2c1)CCCC3NCc1ccccc1 (racemic) | 44.5 | 19.7 |  |
| Cc1ccc2[nH]c3c(c2c1)CCCC3NC1Cc2ccccc2C1 (racemic) | 40 | 0.47 |  |
| FC(F)(F)c1ccc2[nH]c3c(c2c1)CCCC3NCc1ccccc1 (racemic) | > 100 | 1 |  |
| Cc1ccc2[nH]c3c(c2c1)CCCC3NCc1ccccc1 (racemic) | 21.3 | 1.9 |  |
| Brc1ccc2[nH]c3c(c2c1)CCCC3NCc1ccccc1 (racemic) | 18.8 | 0.15 |  |
| O=[N+]([O-])c1ccc2[nH]c3c(c2c1)CCCC3NCc1ccccc1 (racemic) | 20.4 | 0.23 |  |
| COc1ccc2[nH]c3c(c2c1)CCCC3NCc1ccccc1 (racemic) | 57.9 | 7.6 |  |
